Columns and labels:
Conditions in all cases: 72 h
Vero E6 [1] = assay: relative viability EC50 (midpoint between 100% and the lowest measured viability); higher = less toxic
Calu-3 [2] = assay: as above
Caco-2 [3] = assay: as above
U2OS [4] = assay: as above
Vero E6 [5] = assay: cell viability relative to DMSO; higher = less toxic
Calu-3 [6] = assay: as above
Caco-2 [7] = assay: as above
U2OS [8] = assay: as above
Vero E6 [9] = assay: drug sensitivity score (DSS) for viability; higher = more toxic; extreme values may be limits of the assay
Calu-3 [10] = assay: as above
Caco-2 [11] = assay: as above
U2OS [12] = assay: as above
HepG2 [13] = assay: relative viability EC50 (midpoint between 100% and the lowest measured viability); higher = less toxic
HepG2 [14] = assay: cell viability relative to DMSO; higher = less toxic
HepG2 [15] = assay: drug sensitivity score (DSS) for viability; higher = more toxic; extreme values may be limits of the assay

Row | Compound | relative viability EC50 (Vero E6 [1]) [µM] | relative viability EC50 (Calu-3 [2]) [µM] | relative viability EC50 (Caco-2 [3]) [µM] | relative viability EC50 (U2OS [4]) [µM] | cell viability (Vero E6 [5]; 1 nM) [%] | cell viability (Vero E6 [5]; 10 nM) [%] | cell viability (Vero E6 [5]; 100 nM) [%] | cell viability (Vero E6 [5]; 1000 nM) [%] | cell viability (Vero E6 [5]; 10000 nM) [%] | cell viability (Calu-3 [6]; 1 nM) [%] | cell viability (Calu-3 [6]; 10 nM) [%] | cell viability (Calu-3 [6]; 100 nM) [%] | cell viability (Calu-3 [6]; 1000 nM) [%] | cell viability (Calu-3 [6]; 10000 nM) [%] | cell viability (Caco-2 [7]; 1 nM) [%] | cell viability (Caco-2 [7]; 10 nM) [%] | cell viability (Caco-2 [7]; 100 nM) [%] | cell viability (Caco-2 [7]; 1000 nM) [%] | cell viability (Caco-2 [7]; 10000 nM) [%] | cell viability (U2OS [8]; 1 nM) [%] | cell viability (U2OS [8]; 10 nM) [%] | cell viability (U2OS [8]; 100 nM) [%] | cell viability (U2OS [8]; 1000 nM) [%] | cell viability (U2OS [8]; 10000 nM) [%] | drug sensitivity score (Vero E6 [9]) | drug sensitivity score (Calu-3 [10]) | drug sensitivity score (Caco-2 [11]) | drug sensitivity score (U2OS [12]) | relative viability EC50 (HepG2 [13]) [µM] | cell viability (HepG2 [14]; 1 nM) [%] | cell viability (HepG2 [14]; 10 nM) [%] | cell viability (HepG2 [14]; 100 nM) [%] | cell viability (HepG2 [14]; 1000 nM) [%] | cell viability (HepG2 [14]; 10000 nM) [%] | drug sensitivity score (HepG2 [15])
1 | C=C[C@](C)(O)CC[C@@H]1[C@@]2(C)CCCC(C)(C)[C@@H]2CC[C@@]1(C)O [sclareol] | > 10 | > 10 | > 10 | > 10 | 101 | 100 | 102 | 99.6 | 104 | 101 | 98.7 | 98.7 | 104 | 94.4 | 101 | 98.8 | 99.7 | 102 | 87.6 | 107 | 96.6 | 96.4 | 98.8 | 94.6 | 0 | 0 | 0 | 0 | – | – | – | – | – | – | –
2 | C[C@]12C[C@H](O)[C@H]3[C@@H](CCC4=CC(=O)CC[C@@]43C)[C@@H]1CC[C@@H]2C(=O)CO [corticosterone] | > 10 | > 10 | > 10 | > 10 | 96.1 | 91.6 | 101 | 90.6 | 87.8 | 101 | 101 | 96.4 | 97.2 | 93.7 | 92.8 | 114 | 114 | 101 | 91.5 | 94.9 | 100 | 92.3 | 96.1 | 97.9 | 0 | 0 | 0 | 0 | – | – | – | – | – | – | –
3 | CC(C)[C@@H]1CC[C@@H](C)C[C@@H]1P(=O)(c1ccccc1)c1ccccc1 [DPO-1] | > 10 | > 10 | > 10 | > 10 | 112 | 105 | 110 | 96.6 | 105 | 95.9 | 98.4 | 96.7 | 93.7 | 94.1 | 100 | 102 | 98.7 | 96.6 | 78 | 98.5 | 100 | 97.3 | 102 | 93.7 | 0 | 0 | 1.2 | 0 | – | – | – | – | – | – | –
4 | COc1cc2nccc(Oc3ccc(NC(=O)NC4CC4)c(Cl)c3)c2cc1C(N)=O [lenvatinib] | > 10 | – | > 10 | > 10 | 102 | 106 | 106 | 99.1 | 99.6 | 115 | 98.1 | 89.6 | 94.7 | 68.3 | 106 | 95.5 | 94.7 | 91.2 | 75.6 | 105 | 101 | 101 | 90.8 | 76.3 | 0 | 2.3 | 1.4 | 2 | > 10 | 110 | 108 | 105 | 110 | 95.4 | 0
5 | CCCCCOc1ccc(-c2ccc(-c3ccc(C(=O)N[C@H]4C[C@@H](O)[C@@H](O)NC(=O)[C@@H]5[C@@H](O)[C@@H](C)CN5C(=O)[C@H]([C@@H](C)O)NC(=O)[C@H]([C@H](O)[C@@H](O)c5ccc(O)cc5)NC(=O)[C@@H]5C[C@@H](O)CN5C(=O)[C@H]([C@@H](C)O)NC4=O)cc3)cc2)cc1 [anidulafungin] | > 10 | > 10 | – | > 10 | 94.8 | 102 | 104 | 101 | 100 | 99.6 | 90.1 | 96.6 | 83.2 | 90.5 | 110 | 106 | 105 | 105 | 59.2 | 94.8 | 95.6 | 96.8 | 98.1 | 94 | 0 | 0.5 | 1.7 | 0 | – | 97.4 | 104 | 97.6 | 97.1 | 68.7 | 1.9
6 | c1cc(OCCN2CCCCC2)cc(-c2n[nH]c3ccc(-c4nnc[nH]4)cc23)c1 [CC-401] | > 10 | > 10 | > 10 | > 10 | 101 | 98 | 101 | 103 | 95.2 | 104 | 89.2 | 96 | 95.2 | 122 | 101 | 95.7 | 95.5 | 97.3 | 106 | 101 | 96.4 | 100 | 94.1 | 93.4 | 0 | 0 | 0 | 0 | – | 94.5 | 96.7 | 88.4 | 90.7 | 61.5 | 2.9
7 | CS(=O)(=O)c1ccc([C@@H](O)[C@@H](CO)NC(=O)C(Cl)Cl)cc1 [thiamphenicol] | > 10 | > 10 | > 10 | > 10 | 95.8 | 99.3 | 92.3 | 96.8 | 98.1 | 106 | 94.5 | 102 | 89.7 | 97.8 | 99.7 | 89.8 | 91.7 | 93.4 | 94.4 | 99.5 | 97.5 | 105 | 96.6 | 99 | 0 | 0 | 0 | 0 | – | 101 | 110 | 93.4 | 101 | 67.3 | 1.4

Source: the supplement of paper PMC13380429
